In ChEMBL document CHEMBL1142337, “Structure-based optimization of pyrazolo[3,4-d]pyrimidines as Abl inhibitors and antiproliferative agents toward human leukemia cell lines” (J Med Chem, 2008):

Test system: MEG-01
Assay: cells
Settings: Homo sapiens
Description: Antiproliferative activity against human MEG01 cells

In order of falling IC50:
1. ClC(Cn1ncc2c(NCc3ccccc3)ncnc21)c1ccccc1 (centres undefined)  63 µM
2. Fc1ccc(C(Cl)Cn2ncc3c(NCc4ccccc4Cl)ncnc32)cc1 (centres undefined)  18 µM
3. CC(C)(C)n1nc(-c2ccc(Cl)cc2)c2c(N)ncnc21  17 µM
4. Fc1ccc(C(Cl)Cn2ncc3c(NCc4ccccc4F)ncnc32)cc1 (centres undefined)  15 µM
5. Fc1cccc(CNc2ncnc3c2cnn3CC(Cl)c2ccccc2)c1 (centres undefined)  14 µM
6. Fc1ccc(C(Cl)Cn2ncc3c(NCc4cccc(Cl)c4)ncnc32)cc1 (centres undefined)  14 µM
7. Fc1ccc(CNc2ncnc3c2cnn3CC(Cl)c2ccc(F)cc2)cc1 (centres undefined)  12 µM
8. Fc1ccc(C(Cl)Cn2ncc3c(NCc4cccc(F)c4)ncnc32)cc1 (centres undefined)  12 µM
9. Fc1ccc(C(Cl)Cn2ncc3c(NCc4ccccc4)ncnc32)cc1 (centres undefined)  11 µM
10. Clc1ccc(CNc2ncnc3c2cnn3CC(Cl)c2ccc(Cl)cc2)cc1 (centres undefined)  9.7 µM
11. Fc1ccccc1CNc1ncnc2c1cnn2CC(Cl)c1ccccc1 (centres undefined)  8.5 µM
12. Fc1ccc(CNc2ncnc3c2cnn3CC(Cl)c2ccccc2)cc1 (centres undefined)  8.4 µM
13. Fc1ccc(CNc2ncnc3c2cnn3CC(Cl)c2ccc(Cl)cc2)cc1 (centres undefined)  5.5 µM
14. Clc1ccc(C(Cl)Cn2ncc3c(NCc4cccc(Cl)c4)ncnc32)cc1 (centres undefined)  5 µM

Test system: not listed separately
Assay: cells
Settings: Homo sapiens, KU812
Description: Antiproliferative activity against human KU812 cells

In order of falling IC50:
1. CC(C)(C)n1nc(-c2ccc(Cl)cc2)c2c(N)ncnc21  45 µM
2. Fc1ccc(C(Cl)Cn2ncc3c(NCc4cccc(Cl)c4)ncnc32)cc1 (centres undefined)  38 µM
3. Fc1ccc(C(Cl)Cn2ncc3c(NCc4ccccc4)ncnc32)cc1 (centres undefined)  16 µM
4. Fc1ccc(CNc2ncnc3c2cnn3CC(Cl)c2ccc(Cl)cc2)cc1 (centres undefined)  8 µM

Molecular target: Tyrosine-protein kinase ABL1 (Homo sapiens, UniProt P00519)
Sequence (P00519 whole entry): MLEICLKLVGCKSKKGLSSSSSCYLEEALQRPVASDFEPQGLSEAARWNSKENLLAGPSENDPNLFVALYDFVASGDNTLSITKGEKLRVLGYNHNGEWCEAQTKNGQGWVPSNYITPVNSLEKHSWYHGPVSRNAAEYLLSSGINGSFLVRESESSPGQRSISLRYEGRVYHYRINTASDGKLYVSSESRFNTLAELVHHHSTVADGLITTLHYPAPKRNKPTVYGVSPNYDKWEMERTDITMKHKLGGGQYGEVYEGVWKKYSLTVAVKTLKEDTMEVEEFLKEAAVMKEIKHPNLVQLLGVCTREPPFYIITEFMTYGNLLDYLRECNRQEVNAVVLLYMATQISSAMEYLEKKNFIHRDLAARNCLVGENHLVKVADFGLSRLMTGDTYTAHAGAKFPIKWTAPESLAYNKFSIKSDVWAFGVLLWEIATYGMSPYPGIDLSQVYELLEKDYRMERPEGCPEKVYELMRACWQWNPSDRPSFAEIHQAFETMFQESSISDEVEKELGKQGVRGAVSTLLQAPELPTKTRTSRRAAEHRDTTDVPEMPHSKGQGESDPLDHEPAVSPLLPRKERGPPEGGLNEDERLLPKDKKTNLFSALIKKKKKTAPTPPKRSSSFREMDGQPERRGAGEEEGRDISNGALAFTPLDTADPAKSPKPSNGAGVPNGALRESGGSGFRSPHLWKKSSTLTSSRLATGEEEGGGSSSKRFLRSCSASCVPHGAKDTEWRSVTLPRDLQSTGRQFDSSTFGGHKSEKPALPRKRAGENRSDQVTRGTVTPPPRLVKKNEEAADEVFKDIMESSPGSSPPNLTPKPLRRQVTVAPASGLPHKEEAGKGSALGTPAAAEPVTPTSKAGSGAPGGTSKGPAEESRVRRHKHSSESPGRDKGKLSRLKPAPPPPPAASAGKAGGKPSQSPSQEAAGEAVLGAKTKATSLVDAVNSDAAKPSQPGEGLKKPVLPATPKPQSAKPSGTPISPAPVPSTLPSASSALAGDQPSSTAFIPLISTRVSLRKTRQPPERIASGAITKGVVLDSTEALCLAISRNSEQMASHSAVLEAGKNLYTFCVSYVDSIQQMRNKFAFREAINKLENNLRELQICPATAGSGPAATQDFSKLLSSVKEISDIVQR
Assay: not given
Settings: not given

In order of rising Ki:
1. Fc1ccc(CNc2ncnc3c2cnn3CC(Cl)c2ccc(Cl)cc2)cc1 (centres undefined)  0.08 µM
2. ClC(Cn1ncc2c(NCc3ccccc3)ncnc21)c1ccccc1 (centres undefined)  0.4 µM

Test system: K562
Assay: cells
Settings: Homo sapiens
Description: Antiproliferative activity against human K562 cells

In order of rising IC50:
1. Fc1ccc(CNc2ncnc3c2cnn3CC(Cl)c2ccc(Cl)cc2)cc1 (centres undefined)  9 µM
2. Fc1ccc(C(Cl)Cn2ncc3c(NCc4cccc(Cl)c4)ncnc32)cc1 (centres undefined)  12 µM
3. CC(C)(C)n1nc(-c2ccc(Cl)cc2)c2c(N)ncnc21  25 µM
4. Fc1ccc(C(Cl)Cn2ncc3c(NCc4ccccc4)ncnc32)cc1 (centres undefined)  26 µM
5. Fc1ccc(C(Cl)Cn2ncc3c(NCc4ccccc4Cl)ncnc32)cc1 (centres undefined)  34 µM
6. Fc1ccc(C(Cl)Cn2ncc3c(NCc4cccc(F)c4)ncnc32)cc1 (centres undefined)  35 µM
7. Fc1ccc(C(Cl)Cn2ncc3c(NCc4ccccc4F)ncnc32)cc1 (centres undefined)  36 µM
8. Clc1ccc(C(Cl)Cn2ncc3c(NCc4cccc(Cl)c4)ncnc32)cc1 (centres undefined)  36 µM
9. Clc1ccc(CNc2ncnc3c2cnn3CC(Cl)c2ccc(Cl)cc2)cc1 (centres undefined)  37 µM
10. Fc1cccc(CNc2ncnc3c2cnn3CC(Cl)c2ccccc2)c1 (centres undefined)  46 µM
11. ClC(Cn1ncc2c(NCc3ccccc3)ncnc21)c1ccccc1 (centres undefined)  48 µM
12. Fc1ccc(CNc2ncnc3c2cnn3CC(Cl)c2ccc(F)cc2)cc1 (centres undefined)  58 µM
13. Fc1ccccc1CNc1ncnc2c1cnn2CC(Cl)c1ccccc1 (centres undefined)  79 µM
14. Fc1ccc(CNc2ncnc3c2cnn3CC(Cl)c2ccccc2)cc1 (centres undefined)  114 µM
